# Like-named read-outs stand apart in the source and are kept apart here.
# What was measured:
# [1] = test system: HIV-IIIb; assay: Test A: Antiviral Assay in MT4 Cells; assay type: cell-based, HIV-1; details: for inhibition at 0.2 µM: 0.2 μM drug concentration
# Description: Test A: Antiviral Assay in MT4 Cells
# MT-4 cells were next mixed with HIV-IIIb at an m.o.i of 0.003 for 1 hour, after which time 35 μL of virus/cell mixture (2000 cells) was immediately added to each well containing 40 μL of diluted compound. The plates were then incubated at 37° C. for 5 days. After 5 days of incubation, 25 μl of 2× concentrated CellTiter-Glo™ Reagent (catalog #G7571, Promega Biosciences, Inc., Madison, Wis.) was added to each well containing MT-4 cells. Cell lysis was carried out by incubating at room temperature for 10 min and then chemiluminescence was read.
# [2] = Test B: Cytotoxicity Assay; assay type: cell-based; details: human, uninfected MT-4 cells, CellTiter-Glo
# Description: Test B: Cytotoxicity Assay Compound cytotoxicity and the corresponding CC50 values was determined using the same protocol as described in the antiviral assay (Test A) except that uninfected cells were used.
# [3] = Human immunodeficiency virus 1, MT4, 120 h, MT-4 cells infected with HIV-IIIb, 5 days, values normalized to 100%, average over time, read-out: % inhibition at 0.2 μM (percent inhibition of virus-induced cell killing)
SMILES,"inhibition at 0.2 µM [1, 3]",CC50 at 5 days [2],"inhibition at 0.2 µM ([1]; Human immunodeficiency virus 1, IIIB, MT4, comparison with previously published compounds, read-out: Response at 0.2 μM (percent inhibition of virus-induced cell killing))","inhibition at 2 µM ([1]; Human immunodeficiency virus 1, IIIB, MT4, 2 μM drug concentration, comparison with previously published compounds, read-out: Response at 2 μM (percent inhibition of virus-induced cell killing))"
"Cn1nc(NS(C)(=O)=O)c2cccc(-c3ccc(C#CC4(C)COC4)nc3[C@H](Cc3cc(F)cc(F)c3)NC(=O)Cn3nc(C(F)(F)F)c4c3C(F)(F)[C@@H]3C[C@H]43)c21 [Compound 29, 2-((3bS,4aR)-5,5-difluoro-3-(trifluoromethyl)-3b,4,4a,5-tetrahydro-1H-cyclopropa[3,4]cyclopenta[1,2-c]pyrazol-1-yl)-N—((S)-2-(3,5-difluorophenyl)-1-(3-(1-methyl-3-(methylsulfonamido)-1H-indazol-7-yl)-6-((3-methyloxetan-3-yl)ethynyl)pyridin-2-yl)ethyl)acetamide]",100%,12.4 µM,–,–
"Cn1nc(NS(C)(=O)=O)c2cccc(-c3ccc(C#CC4(O)CCOC4)nc3[C@H](Cc3cc(F)cc(F)c3)NC(=O)Cn3nc(C(F)(F)F)c4c3C(F)(F)[C@@H]3C[C@H]43)c21 (stereo partly drawn) [Compound 30B, 2-((3bS,4aR)-5,5-difluoro-3-(trifluoromethyl)-3b,4,4a,5-tetrahydro-1H-cyclopropa[3,4]cyclopenta[1,2-c]pyrazol-1-yl)-N-((1S)-2-(3,5-difluorophenyl)-1-(6-((3-hydroxytetrahydrofuran-3-yl)ethynyl)-3-(1-methyl-3-(methylsulfonamido)-1H-indazol-7-yl)pyridin-2-yl)ethyl)acetamide]",100%,19.5 µM,–,–
"CN1CCC(O)(C#Cc2ccc(-c3cccc4c(NS(C)(=O)=O)nn(C)c34)c([C@H](Cc3cc(F)cc(F)c3)NC(=O)Cn3nc(C(F)(F)F)c4c3C(F)(F)[C@@H]3C[C@H]43)n2)CC1 [Compound 31, 2-((3bS,4aR)-5,5-difluoro-3-(trifluoromethyl)-3b,4,4a,5-tetrahydro-1H-cyclopropa[3,4]cyclopenta[1,2-c]pyrazol-1-yl)-N—((S)-2-(3,5-difluorophenyl)-1-(6-((4-hydroxy-1-methylpiperidin-4-yl)ethynyl)-3-(1-methyl-3-(methylsulfonamido)-1H-indazol-7-yl)pyridin-2-yl)ethyl)acetamide]",93%,20.2 µM,–,–
"CN1CCN(CC#Cc2ccc(-c3cccc4c(NS(C)(=O)=O)nn(C)c34)c([C@H](Cc3cc(F)cc(F)c3)NC(=O)Cn3nc(C(F)(F)F)c4c3C(F)(F)[C@@H]3C[C@H]43)n2)CC1 [Compound 32, 2-((3bS,4aR)-5,5-difluoro-3-(trifluoromethyl)-3b,4,4a,5-tetrahydro-1H-cyclopropa[3,4]cyclopenta[1,2-c]pyrazol-1-yl)-N—((S)-2-(3,5-difluorophenyl)-1-(3-(1-methyl-3-(methylsulfonamido)-1H-indazol-7-yl)-6-(3-(4-methylpiperazin-1-yl)prop-1-yn-1-yl)pyridin-2-yl)ethyl)acetamide]",95%,8.53 µM,–,–
"Cn1cncc1C#Cc1ccc(-c2cccc3c(NS(C)(=O)=O)nn(C)c23)c([C@H](Cc2cc(F)cc(F)c2)NC(=O)Cn2nc(C(F)(F)F)c3c2C(F)(F)[C@@H]2C[C@H]32)n1 [Compound 33, 2-((3bS,4aR)-5,5-difluoro-3-(trifluoromethyl)-3b,4,4a,5-tetrahydro-1H-cyclopropa[3,4]cyclopenta[1,2-c]pyrazol-1-yl)-N—((S)-2-(3,5-difluorophenyl)-1-(6-((1-methyl-1H-imidazol-5-yl)ethynyl)-3-(1-methyl-3-(methylsulfonamido)-1H-indazol-7-yl)pyridin-2-yl)ethyl)acetamide]",93%,12.5 µM,–,–
"Cn1nc(NS(C)(=O)=O)c2cccc(-c3ccc(C#CCN4CCOCC4)nc3[C@H](Cc3cc(F)cc(F)c3)NC(=O)Cn3nc(C(F)(F)F)c4c3C(F)(F)[C@@H]3C[C@H]43)c21 [Compound 34, 2-((3bS,4aR)-5,5-difluoro-3-(trifluoromethyl)-3b,4,4a,5-tetrahydro-1H-cyclopropa[3,4]cyclopenta[1,2-c]pyrazol-1-yl)-N—((S)-2-(3,5-difluorophenyl)-1-(3-(1-methyl-3-(methylsulfonamido)-1H-indazol-7-yl)-6-(3-morpholinoprop-1-yn-1-yl)pyridin-2-yl)ethyl)acetamide]",87%,10.2 µM,–,–
"NC(=O)c1cc(-c2ccc(C#CC3(O)CCOCC3)nc2[C@H](Cc2cc(F)cc(F)c2)NC(=O)Cn2nc(C(F)(F)F)c3c2C(F)(F)[C@@H]2C[C@H]32)ccc1F [Compound 35, 5-(2-((S)-1-(2-((3bS,4aR)-5,5-difluoro-3-(trifluoromethyl)-3b,4,4a,5-tetrahydro-1H-cyclopropa[3,4]cyclopenta[1,2-c]pyrazol-1-yl)acetamido)-2-(3,5-difluorophenyl)ethyl)-6-((4-hydroxytetrahydro-2H-pyran-4-yl)ethynyl)pyridin-3-yl)-2-fluorobenzamide]",86%,10.1 µM,86%,86%
"Cn1nc(NS(C)(=O)=O)c2cccc(-c3ccc(C#CC4CCCCN4)nc3[C@H](Cc3cc(F)cc(F)c3)NC(=O)Cn3nc(C(F)(F)F)c4c3C(F)(F)[C@@H]3C[C@H]43)c21 (stereo partly drawn) [Compound 36B, 2-((3bS,4aR)-5,5-difluoro-3-(trifluoromethyl)-3b,4,4a,5-tetrahydro-1H-cyclopropa[3,4]cyclopenta[1,2-c]pyrazol-1-yl)-N-((1S)-2-(3,5-difluorophenyl)-1-(3-(1-methyl-3-(methylsulfonamido)-1H-indazol-7-yl)-6-(piperidin-2-ylethynyl)pyridin-2-yl)ethyl)acetamide]",83%,6.57 µM,–,–
"Cn1nc(NS(C)(=O)=O)c2cccc(-c3ccc(C#CC4(O)CCCC4)nc3[C@H](Cc3cc(F)cc(F)c3)NC(=O)Cn3nc(C(F)(F)F)c4c3C(F)(F)[C@@H]3C[C@H]43)c21 [Compound 37, 2-((3bS,4aR)-5,5-difluoro-3-(trifluoromethyl)-3b,4,4a,5-tetrahydro-1H-cyclopropa[3,4]cyclopenta[1,2-c]pyrazol-1-yl)-N—((S)-2-(3,5-difluorophenyl)-1-(6-((1-hydroxycyclopentyl)ethynyl)-3-(1-methyl-3-(methylsulfonamido)-1H-indazol-7-yl)pyridin-2-yl)ethyl)acetamide]",80%,8.71 µM,–,–
"Cn1nc(NS(C)(=O)=O)c2c(Cl)ccc(-c3ccc(C#CC4(O)COC4)nc3[C@H](Cc3cc(F)cc(F)c3)NC(=O)Cn3nc(C(F)(F)F)c4c3C(F)(F)[C@@H]3C[C@H]43)c21 [Compound 38, N—((S)-1-(3-(4-chloro-1-methyl-3-(methylsulfonamido)-1H-indazol-7-yl)-6-((3-hydroxyoxetan-3-yl)ethynyl)pyridin-2-yl)-2-(3,5-difluorophenyl)ethyl)-2-((3bS,4aR)-5,5-difluoro-3-(trifluoromethyl)-3b,4,4a,5-tetrahydro-1H-cyclopropa[3,4]cyclopenta[1,2-c]pyrazol-1-yl)acetamide]",97%,14.3 µM,–,–
"Cn1nc(NS(C)(=O)=O)c2c(Cl)ccc(-c3ccc(C#CC4(O)CCOCC4)nc3[C@H](Cc3cc(F)cc(F)c3)NC(=O)Cn3nc(C(F)(F)F)c4c3C(F)(F)[C@@H]3C[C@H]43)c21 [Compound 39, N—((S)-1-(3-(4-chloro-1-methyl-3-(methylsulfonamido)-1H-indazol-7-yl)-6-((4-hydroxytetrahydro-2H-pyran-4-yl)ethynyl)pyridin-2-yl)-2-(3,5-difluorophenyl)ethyl)-2-((3bS,4aR)-5,5-difluoro-3-(trifluoromethyl)-3b,4,4a,5-tetrahydro-1H-cyclopropa[3,4]cyclopenta[1,2-c]pyrazol-1-yl)acetamide]",95%,10.7 µM,–,–
"Cn1nc(NS(C)(=O)=O)c2c(Cl)ccc(-c3ccc(C#CC4(O)CCOCC4)nc3[C@H](Cc3cc(F)cc(F)c3)NC(=O)Cn3nc(C(F)F)c4c3C(F)(F)[C@@H]3C[C@H]43)c21 [Compound 40, N—((S)-1-(3-(4-chloro-1-methyl-3-(methylsulfonamido)-1H-indazol-7-yl)-6-((4-hydroxytetrahydro-2H-pyran-4-yl)ethynyl)pyridin-2-yl)-2-(3,5-difluorophenyl)ethyl)-2-((3bS,4aR)-3-(difluoromethyl)-5,5-difluoro-3b,4,4a,5-tetrahydro-1H-cyclopropa[3,4]cyclopenta[1,2-c]pyrazol-1-yl)acetamide]",96%,17 µM,–,–
"CN1CCN(C(C)(C)C#Cc2ccc(-c3ccc(Cl)c4c(NS(C)(=O)=O)nn(C)c34)c([C@H](Cc3cc(F)cc(F)c3)NC(=O)Cn3nc(C(F)(F)F)c4c3C(F)(F)[C@@H]3C[C@H]43)n2)CC1 [Compound 41, N—((S)-1-(3-(4-chloro-1-methyl-3-(methylsulfonamido)-1H-indazol-7-yl)-6-(3-methyl-3-(4-methylpiperazin-1-yl)but-1-yn-1-yl)pyridin-2-yl)-2-(3,5-difluorophenyl)ethyl)-2-((3bS,4aR)-5,5-difluoro-3-(trifluoromethyl)-3b,4,4a,5-tetrahydro-1H-cyclopropa[3,4]cyclopenta[1,2-c]pyrazol-1-yl)acetamide]",98%,2.08 µM,–,–
